Experiment [1] deals with T1, wild-type RT (Human immunodeficiency virus type 1 group M subtype B, UniProt P04585).
T1 construct: Wild-type and mutant RT genes of these clones were subcloned into a bacterial expression vector (pKRT2); made in house; host or cells: E. coli
Briefly: Heteropolymeric RNA template RT hybridization assay, inhibition of wild-type RT (Example 2). Format: biochemical, HIV-1. Here is the method: (§1) A template RNA was synthesized by in vitro transcription from linearized pSP72 plasmid DNA by performing the following steps:
(§2) 2. In vitro transcription with T7 RNA polymerase was performed by 2 hour incubation at 37° C. of a solution containing 50 μg/mL of the linearized DNA, 400 units/mL T7 RNA polymerase, 40 mM Tris-HCl buffer, pH 8.0, 6 mM MgCl2, 2 mM spermidine, 10 mM NaCl, 10 mM DTT, 0.5 mM rATP, 0.5 mM rGTP, 0.5 mM rCTP and 0.5 mM rUTP.
(§3) The following DNA oligonucleotide was synthesized on a DNA synthesizer employing standard methods:
(§4) The following probe oligonucleotides were synthesized on a DNA synthesizer and conjugated with biotin or horseradish peroxidase (HRP) employing standard methods.
(§5) 1. 10 μL of 1 N KOH was added to each tube and incubated at 37° C. for 15 minutes to hydrolyze the RNA.
(§6) 2. 10 μL of 1 N KH2 PO4 was added to each tube to neutralize the pH and […] of solution from each tube was transferred to a well of a streptavidin-coated microplate.
(§7) 3. 50 μL of the following solution was added to each well:
(§8) 4. The wells were covered with an adhesive plate cover and incubated at 37° C. for 2 hours.
(§9) 6. 100 μL of tetramethylbenzidine (TMB, SOMA) was added to each well and incubated for 1 hour at room temperature.
(§10) 7. 100 μL of TMB Stop Solution (SOMA) was added to each well and the absorbance (450 nm-650 nm) of the wells was read with a plate reader.
(§11) In this example, RT was obtained from E. coli expression systems as described below and was added to each tube in sufficient amount to give a significant signal (about 1-2 absorbance units) in the absence of drug. The same amount of RT was added to each tube. Both a wild-type and a codon 74 (ddI-resistant) mutant RT were tested. Molecular clones were constructed by site-directed mutagenesis to contain a mutation at codon 74, 215, and/or 219. Mutants at codon 74 are resistant to ddI. Wild-type and mutant RT genes of these clones were subcloned into a bacterial expression vector (pKRT2). Bacterial lysates containing recombinant expressed RT, both wild-type and mutant, were made as previously described (D'Aquila, R. T. and Summers, W. C. (1989) JAIDS 2:579-587). The IC50 was determined by computerized estimation (Systat version 5.1) of the median-effect equation: fractional reduction=1/[1+(IC50/drug concentration)^m ]. Each IC50 is the mean of 5-10 experiments. Results of a one-tailed Mann-Whitney U test for the difference between mean wild-type and mutant IC50s: p<0.005.
(§12) An amount of ddATP (the active form of ddI) varying from 0.0005 to 0.250 mM was added to various tubes containing 40 μL of the following solution:
(§13) In this example, the dNTP concentrations were the same as described in Example 1 above.
(§14) These tubes were incubated at 37° C. for 1 hour to allow the synthesis of cDNA. […]

Experiment [2] deals with T2, codon 74 (ddI-resistant) mutant RT (Human immunodeficiency virus type 1 group M subtype B, UniProt P04585, L661V).
T2 construct: Wild-type and mutant RT genes of these clones were subcloned into a bacterial expression vector (pKRT2); made in house; host or cells: E. coli
Briefly: Heteropolymeric RNA template RT hybridization assay, inhibition of codon 74 mutant RT (Example 2). It is filed as biochemical, HIV-1. How it is done: as §1, §2, §3, §4, §5, §6, §7, §8, §9, §10, §11, §12, §13, §14

Experiment [3] concerns triple mutant RT (74/215/219). Briefly: Heteropolymeric RNA template RT hybridization assay, inhibition of triple mutant RT 74/215/219 (Example 2). Format: biochemical, HIV-1. The settings on record: 74/215/219 mutant RT; single determinations; read-out: IC50 (multiple determinations). Here is the method: as §11, §12, §13, §14
Experiment [4] relates to AMV RT. Briefly: Heteropolymeric RNA template RT hybridization assay, inhibition of AMV RT (Example 3). Format: biochemical, avian myeloblastosis virus. The note with it: for Absorbance (450 nm-650 nm): no-drug absorbance 3.760. Here is the method:
as §5, §6, §7, §8, §9, §10
Same as described in Example 1 above.
AMV RT (Du Pont) was used as a model to illustrate use of the method of the present invention for detecting and/or quantitating the ability of a compound to inhibit RT activity. AMV RT was added to give tubes containing 40 μL of the following solution:
These reaction conditions were similar to those of Example 1 above except with respect to the addition of the inhibitor, the lower dNTP concentration (0.001 mM instead of 0.5 mM) and the increased amount of RT (200 mU instead of 5 mU). Reducing the dNTPs decreases the signal in the assay, but increasing the RT increases the signal. The reduced dNTP concentration helps to make the assay more sensitive to inhibitors which act competitively with the dNTPs and, thus, less inhibitor is needed to achieve the effect. By adding more inhibitor, the same results can be obtained at higher dNTP concentrations.
The tubes were incubated at 37° C. for 1 hour to allow the synthesis of cDNA.
Same as for Example 1 described above.

Experiment [5] concerns HIV-1 reverse transcriptase with valine for leucine at codon 74. The note with it: valine for the wild-type leucine at codon 74; cited from earlier work.
Experiment [6] has as its system HIV-1 reverse transcriptase with codon 215 and/or codon 219 substitution. The settings on record: phenylalanine or tyrosine for threonine at codon 215, and/or glutamine for lysine at codon 219; cited from earlier work.

Where “and” joins values, the source holds several entries; their conditions need not be identical. Equal values may be shown once. Read-outs that look alike come from different tables or passages of the source.

Results on 4 compounds are retold here after patent US6316182A, “Detection of reverse transcriptase by DNA hybridization assay” (priority 1992, dated 2001).

Usually IC50 stands for the concentration at which inhibition is half-maximal. Consider `Nc1ncnc2c1ncn2[C@H]1CC[C@@H](COP(=O)(O)OP(=O)(O)OP(=O)(O)O)O1` [ddATP], for which the IC50 in experiment [1] (10 cases, 0.5 mM dNTPs, read-out: Maximum (IC50)) was 8.7 µM; in experiment [1] (10 cases, 0.5 mM dNTPs, read-out: Minimum (IC50)), 3.1 µM; in experiment [1] (mean of 10 cases, 0.5 mM dNTPs, wild-type vs mutant p<0.005, read-out: Mean (IC50)), 6.79 µM; in experiment [1] (single determinations, read-out: IC50 (multiple determinations)), 8.6 µM and 6.7 µM and 7.8 µM and 4.9 µM and 5.7 µM; in experiment [2] (74 mutant RT, single determinations, read-out: IC50 (multiple determinations)), 13.2 µM and 16.6 µM and 13.4 µM; in experiment [2] (Mutant 74 RT, 5 cases, 0.5 mM dNTPs, read-out: Maximum (IC50)), 29.4 µM. The IC50 is 11.1 µM in experiment [2] (Mutant 74 RT, 5 cases, 0.5 mM dNTPs, read-out: Minimum (IC50)); 16.9 µM in experiment [2] (Mutant 74 RT, mean of 5 cases, 0.5 mM dNTPs, wild-type vs mutant p<0.005, read-out: Mean (IC50)); 79.3 µM in experiment [3]. For the same compound, the “Absorbance (450 nm-650 nm)” value in experiment [4] (ddATP 0.0001 mM) is listed as 3.593; in experiment [4] (ddATP 0.00025 mM), 2.984; in experiment [4] (ddATP 0.0005 mM) it was 2.079; in experiment [4] (ddATP 0.0010 mM) it was 1.365; in experiment [4] (ddATP 0.0025 mM) it was 0.350; in experiment [4] (ddATP 0.0050 mM), 0.197. The “Absorbance (450 nm-650 nm)” value in experiment [4] (ddATP 0.0100 mM) worked out at 0.224.
Consider `O=c1[nH]cnc2c1ncn2[C@H]1CC[C@@H](CO)O1` [ddI], for which the “resistance of the RT to the drug” value in experiment [5] was “leads to ddI resistance”.
Turning to `Cc1cn([C@H]2C[C@H](N=[N+]=[N-])[C@@H](CO)O2)c(=O)[nH]c1=O` [AZT, zidovudine], the “resistance of the RT to the drug” value in experiment [6] was “leads to resistance to AZT”.
On to `O=C(O)P(=O)(O)O` [fosgarnet], for which the “inhibition detected and/or quantitated” value in experiment [4] (similar experiment, non-nucleoside RT inhibitor) is reported as “could also be detected and/or quantitated”.
